The data set can be described thus: gradient 5% acetonitrile 3 min, to 50% in 2 min, to 85% in 15 min, held 3 min, 100 µL/min. The conditions noted are these: column: Zorbax Extend-C18 2.1 x 50 mm; eluents: water / acetonitrile, 0.1% formic acid. Put shortly:
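The system's dead and dwell volumes were 40 μL and 900 μL, with a Zorbax Extend-C18 column (2.1 × 50 mm, 1.8 μm) run at 100 μL/min in water and acetonitrile containing 0.1% formic acid each. Pure standards were analyzed in mixtures of ~100 molecules by HPLC–quadrupole time-of-flight mass spectrometry in positive and negative ionization mode. Retention time was assigned from computationally picked, manually inspected adduct peaks.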
Compound `N#CC(c1ccccc1)C(C/C(=N\O)c1ccccc1)c1ccccc1` (stereo not given) gave an RP-LC retention time of 1090 s.
Next, `O=c1c(S(=O)(=O)N2CCCC2)cccn1Cc1nc(-c2ccccc2Cl)no1`: 808 s.
To `O=C(Nc1cccc2ccc(-n3ccnc3)nc12)C1COc2ccccc2O1` (stereo not given) belongs 674 s.
To `Cc1nc(-c2ccccc2)sc1C(=O)Nc1nc(-c2ccc(F)cc2)cs1` belongs 1250 s; to `CCc1noc(NC(C)=O)c1-c1ccc(C)c(S(=O)(=O)Nc2ccc(C)c(Cl)c2)c1`, 914 s; to `Cc1sc(-c2ccn[nH]2)cc1NC(=O)CCc1ccccc1`, 966 s.
The compound `CCOc1ccc(-c2noc(-c3nn(-c4ccc(F)cc4)c(=O)c4ccccc34)n2)cc1OC` came in with an RP-LC retention time of 1240 s.
Next, `Cc1cc(C)c(C(=O)N2CCCC(C(=O)NC3CCCCC3)C2)[nH]1` (stereo not given): 809 s; `CCc1nc(-c2cc(S(=O)(=O)Nc3cc(F)ccc3Cl)c(C)s2)cs1`: 1160 s.
Take `CCCCn1c(=O)c2ccccc2n(Cc2nc(-c3ccc(Cl)cc3)no2)c1=O`: the RP-LC retention time worked out at 1280 s.
On to `COc1ccc(CCn2ccc3nc(N4CCN(C)CC4)ncc3c2=O)cc1OC`, for which the RP-LC retention time came out at 605 s.
Compound `COc1ccc(-c2noc(C3CCCN3C(=O)c3cc(F)ccc3F)n2)cc1OC` (stereo not given) came in with an RP-LC retention time of 900 s.
`CCOc1ccccc1NC(=O)c1cnc(-c2ccccc2)nc1-c1ccncc1` displayed an RP-LC retention time of 978 s.
In the case of `CCn1c(=O)c(N2CCN(C(=O)NCc3ccc(C)cc3)CC2)nc2ccccc21`, the RP-LC retention time is 927 s.
Next, `Cc1ccc(CNC(=O)c2nc(Cn3c(=O)oc4ccc(Cl)cc43)no2)cc1`: 983 s; `O=C(NCCc1nc(-c2ccc3c(c2)OCO3)n[nH]1)c1ccc(F)cc1Cl`: 692 s.
Consider `Cc1ccc2c(c1)N(Cc1ccccc1)N=C(C(=O)N1CCCCC1)S2(=O)=O`, for which the RP-LC retention time worked out at 1010 s.
Next, `CCCNC(=O)N1CCc2cc(-c3ccc(C(=O)N4CCOCC4)cc3)ccc21`: 732 s.
Take `COC(=O)c1c(C)[nH]c(C(=O)N2CCCC(C(=O)NCCCc3ccccc3)C2)c1C` (stereo not given): the RP-LC retention time came to 800 s.
Turning to `COc1ccc(Cn2cc(S(=O)(=O)N3CCCCC3)ccc2=O)cc1`, the RP-LC retention time amounted to 888 s.
To `O=C1CC(C(F)(F)F)c2c(c(C(=O)O)cn2-c2cccc(F)c2)N1` (stereo not given) belongs 747 s; to `CC1Oc2ccc(-c3csc(NC(=O)COc4ccc(Cl)cc4)n3)cc2N(C)C1=O` (stereo not given), 1070 s.
To `Cn1nccc1-c1nc(-c2ccc3oc(-c4ccccc4)nc3c2)no1` belongs 1230 s; to `COc1ccc(-c2n[nH]c3c2C(c2ccc(OC)c(OC)c2)NC3=O)cc1` (stereo not given), 637 s; to `CCn1cc(S(=O)(=O)N2CCC(n3c(C)cnc3-c3ccccc3)CC2)cn1`, 631 s.
To `CCOc1ccccc1C(=O)Nc1cccn2nc(CC)nc12` belongs 1140 s.
As to `Clc1ccc(C(OCCN2CCCCC2)c2ccccc2)cc1` (stereo not given), the RP-LC retention time turned out to be 850 s.
To `O=C(NCc1ccccc1)N1CCN(c2cnn3c(C4CC4)nnc3c2)CC1` belongs 578 s; to `CCc1ccc(-c2cc3c(=O)n(Cc4noc(CN5CCCC5)n4)ccn3n2)cc1`, 694 s; to `O=C1CCCc2cc(S(=O)(=O)N3CCN(c4ccccn4)CC3)ccc2N1`, 589 s.
Next, `Cc1oc(C2CCN(S(=O)(=O)c3ccc(C#N)cc3)CC2)nc1C(=O)N1CCOCC1`: 760 s.
`Cn1c(=O)c(N2CCC(NC(=O)Nc3ccc4c(c3)OCO4)CC2)nc2ccccc21` displayed an RP-LC retention time of 809 s.
Next, `Cc1ccc(CNS(=O)(=O)c2ccc3c(c2)CCCC(=O)N3)cc1`: 751 s; `COC(=O)CNC(=O)N1CCN(c2nc3ccccc3n(Cc3ccccc3)c2=O)CC1`: 779 s.
Next, `CC(C)(C)c1ccc(C(=O)NC2(c3nc(-c4cccnc4)no3)CCCCC2)cc1`: 1160 s.
Take `CCN(Cc1ccccc1)C(=O)CN1C(=O)C2CCCCN2c2ccc(S(=O)(=O)N(C)C)cc21` (stereo not given): the RP-LC retention time was found to be 647 s.
Take `CN(CC1CCOCC1)C(=O)Nc1ccccc1F`: the RP-LC retention time is 720 s.
Next, `CCc1noc(NC(C)=O)c1-c1ccc(C)c(S(=O)(=O)Nc2ccc(C)c(F)c2)c1`: 856 s; `COc1cc(Cl)ccc1C(=O)N1C[C@@H]2C[C@H](NC(=O)c3ccccc3)[C@H]1C2`: 759 s; `CSc1cccc(NC(=O)N2CCC(CC(=O)N3CCCCC3)CC2)c1`: 789 s.
`CC(C)N1CCN(c2ncc(C(=O)NCc3ccccc3)c(N)n2)CC1` gave an RP-LC retention time of 595 s.
Next, `CCCc1cc(NC)n2ncc(-c3ccccc3)c2n1`: 683 s; `CC(C)CC(=O)N1CCC(Oc2nccnc2N(C)C)C1` (stereo not given): 691 s.
Next, `O=C(Nc1ccc2c(c1)CN(C(=O)c1cccs1)CC2)c1cnccn1`: 708 s.
For the compound `CCc1cc(=O)n(CC(=O)Nc2ccc(OC)c(F)c2)c(N2CCOCC2)n1`, the RP-LC retention time was 719 s.
Next, `CCCNC(=O)N1CCCC1c1nc(-c2ccccc2C)no1` (stereo not given): 863 s; `COc1ccc(C(=O)/C(Br)=C/C(=O)O)cc1`: 744 s; `O=C(Nc1ccccc1F)N1CC(c2nc(CCOCC3CCCC3)no2)C1`: 946 s.
To `Cc1cc(C)n2nc(SCC(=O)NCc3ccccc3Cl)nc2n1` belongs 698 s; to `O=C(NCCN1CCc2ccccc2C1)c1cccc2c1CCN2C(=O)C1CC1`, 640 s; to `CCc1nc2cc(N3CCC(C(=O)NC(C)c4cccnc4)CC3)cnc2nc1CC` (stereo not given), 596 s.
Next, `CC(C)C(=O)Nc1ccc(C(=O)Nc2nc(-c3ccccc3)cs2)cc1`: 949 s.
`Cc1ccc(CNS(=O)(=O)c2cc3n(c2)CCCN(C)C3=O)cc1` returned an RP-LC retention time of 711 s.
With `CC(=O)N[C@@H]1CN(C(=O)c2cc(Cl)ccc2F)C[C@H]1CO`, the RP-LC retention time was 608 s.
`N#Cc1ccc(Cl)cc1NC(=O)C(=O)NCC1CCCO1` (stereo not given) came in with an RP-LC retention time of 759 s.
`COc1ccc(-c2nc(-c3ccc4c(c3)oc(=O)n4C(C)C)no2)cc1F` gave an RP-LC retention time of 1160 s.
Next, `O=C(NCCC1=CCCCC1)C1CCN(c2cnc(N3CCOCC3)nc2)CC1`: 772 s; `COc1ccc(C[C@@H]2NC[C@@H](O)[C@@H]2OC(C)=O)cc1`: 600 s.
In turn, `Cc1ccc(-c2cc3n(n2)CCCN(C(=O)c2ccccn2)C3)cc1` returned an RP-LC retention time of 766 s.
To `Cc1sc(C)c(S(=O)(=O)NC2CC2)c1-c1cc(C(F)(F)F)on1` belongs 1070 s.
Next, `O=C(NCc1ccc(F)cc1)N1CCC(OC2CCN(Cc3ccccc3)CC2)CC1`: 658 s.
For the compound `CNC(=O)c1oc2ccccc2c1NC(=O)C1CCC1`, the RP-LC retention time worked out at 803 s.
To `CCOC(=O)c1cccc(NC(=O)C2CCCN(c3ccc(=O)n(-c4ccc(F)cc4)n3)C2)c1` (stereo not given) belongs 933 s; to `O=C(CCn1nnc2cc(-c3noc(Cc4ccc(Cl)cc4)n3)ccc21)N1CCCC1`, 921 s.
To `Cn1nccc1C(=O)N1CCN(S(=O)(=O)c2ccc3c(c2)oc(=O)n3C)CC1` belongs 679 s; to `Cc1ccc2nc(-c3ccc(Cl)cc3)c(Nc3ccc4c(c3)OCCO4)n2c1`, 735 s; to `Cc1noc(CNC(=O)C2CCN(C(=O)c3csc(-c4ccccc4)n3)CC2)n1`, 650 s.
`Cc1nn2c(=O)cc(CSc3nnc(-c4ccc5c(c4)OCO5)o3)nc2s1`: the RP-LC retention time came to 713 s.
To `Cc1nnc(NC(=O)CSc2nnc(-c3ccc(=O)n(C)c3)n2C)s1` belongs 532 s; to `CCOCCCNC(=O)c1c2c(cn(-c3ccccc3)c1=O)C(=O)CC(C)(C)C2`, 591 s; to `Cc1cc(N2CCCC2)n2nc(CN3CCN(c4ccc(Cl)cc4)CC3)nc2n1`, 654 s.
Next, `CCc1nn2c(nnc3c(=O)n(CCc4c[nH]c5ccccc45)ccc32)c1-c1ccc(F)cc1`: 1040 s; `CCn1c(=O)c(N2CCCC(C(=O)NCCc3c[nH]c4ccc(Cl)cc34)C2)nc2ccccc21` (stereo not given): 1010 s.
In turn, `CCC(C)NC(=O)c1ccc2c(c1)CCCN2S(=O)(=O)CC` (stereo not given) came in with an RP-LC retention time of 781 s.
`Cc1cc(=O)n(CC(=O)N2CCOCC2)c(N2CCOCC2)n1` had an RP-LC retention time of 534 s.
To `CN(C(=O)CSc1nnc(-c2cn(C)nc2-c2ccccc2)n1C)c1ccccc1` belongs 712 s; to `O=C(CSc1cc(-n2cccn2)ncn1)Nc1cccc(Cl)c1F`, 965 s; to `CC(=O)N1CCc2cc(-c3ccc(C(=O)N4CCN(c5ncccn5)CC4)cc3)ccc21`, 771 s.
Next, `Cc1ccc2nc(-c3ccc(Cl)cc3)c(Nc3ccccc3C)n2c1`: 890 s.
The compound `O=C(COc1ccccc1)Nc1nnc(SCC(=O)N2CCCc3ccccc32)s1` displayed an RP-LC retention time of 859 s.
